Reference: ChEMBL document CHEMBL1201862, “PubChem BioAssay data set” (2004)
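Compound exposure: 48 hours, 5 concentrations, 96-well plates. GI50 is the concentration that inhibits growth by half.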 Activity calls are given as the source filed them. Cut-off read from the data, not from the text of the source: active = GI50 up to about 1.1 µM and inactive = higher.

What was measured:
Assay in all cases: DTP human tumour cell line panel, 48 h
[1] = tested on: CCRF-CEM
[2] = tested on: IGROV-1
[3] = tested on: SNB-75
[4] = tested on: OVCAR-3
[5] = tested on: A498
[6] = tested on: RXF 393
[7] = tested on: HCT-15
[8] = tested on: SK-MEL-2
[9] = tested on: SW-620
[10] = tested on: HCC 2998
[11] = tested on: Malme-3M
[12] = tested on: HCT-116
[13] = tested on: ACHN
[14] = tested on: OVCAR-8
[15] = tested on: 786-0
[16] = tested on: HT-29
[17] = tested on: T47D
[18] = tested on: Hs-578T
[19] = tested on: MCF7
[20] = tested on: MDA-N

Question: For `COc1ccc(/C(Cl)=C(\C=N/O)c2ccc(OC)c(OC)c2)cc1OC`, which GI50 [1] is on record?
Answer: > 100 µM (inactive)

Question: And the GI50 [2]?
Answer: > 100 µM (inactive)

Question: What about the GI50 [3] of the same molecule?
Answer: > 100 µM (inactive)

Question: What about the GI50 [4] of the same molecule?
Answer: > 100 µM (inactive)

Question: And the GI50 [5]?
Answer: > 100 µM (inactive)

Question: What about the GI50 [6] of the same molecule?
Answer: > 100 µM (inactive)

Question: What about the GI50 [7] of the same molecule?
Answer: 82 µM

Question: What about the GI50 [8] of the same molecule?
Answer: > 100 µM (inactive)

Question: What about the GI50 [9] of the same molecule?
Answer: > 100 µM (inactive)

Question: What about the GI50 [10] of the same molecule?
Answer: > 100 µM (inactive)

Question: What about the GI50 [11] of the same molecule?
Answer: > 100 µM (inactive)

Question: And the GI50 [12]?
Answer: > 100 µM (inactive)

Question: And the GI50 [13]?
Answer: > 100 µM (inactive)

Question: And the GI50 [14]?
Answer: > 100 µM (inactive)

Question: And the GI50 [15]?
Answer: > 100 µM (inactive)

Question: And the GI50 [16]?
Answer: > 100 µM (inactive)

Question: How did the GI50 [1] turn out when `CN(Cc1cnc2nc(N)nc(N)c2n1)c1ccc(C(=O)NC23CC4CC(CC(C4)C2)C3)cc1` was run?
Answer: 3.95 µM (inactive)

Question: And the GI50 [2]?
Answer: 5.9 µM (inactive)

Question: And the GI50 [3]?
Answer: 21.5 µM (inactive)

Question: What about the GI50 [17] of the same molecule?
Answer: 15.9 µM (inactive)

Question: And the GI50 [4]?
Answer: 16.9 µM (inactive)

Question: And the GI50 [18]?
Answer: 12.9 µM (inactive)

Question: What about the GI50 [5] of the same molecule?
Answer: 53.6 µM (inactive)

Question: What about the GI50 [19] of the same molecule?
Answer: 10.9 µM (inactive)

Question: What about the GI50 [6] of the same molecule?
Answer: 17.1 µM (inactive)

Question: And the GI50 [7]?
Answer: 4.71 µM

Question: What about the GI50 [8] of the same molecule?
Answer: 11.5 µM (inactive)

Question: And the GI50 [9]?
Answer: 7.33 µM (inactive)

Question: What about the GI50 [11] of the same molecule?
Answer: 6.85 µM (inactive)

Question: And the GI50 [12]?
Answer: 4.01 µM (inactive)

Question: What about the GI50 [13] of the same molecule?
Answer: 3.13 µM (inactive)

Question: What about the GI50 [14] of the same molecule?
Answer: 7.35 µM (inactive)

Question: What about the GI50 [15] of the same molecule?
Answer: 7.24 µM (inactive)

Question: Which GI50 [1] does the source give for `C[N+](C)(C)Cc1c(CC#N)[nH]c2ccccc12` here?
Answer: 35.4 µM (inactive)

Question: What about the GI50 [2] of the same molecule?
Answer: > 100 µM (inactive)

Question: And the GI50 [3]?
Answer: 96.2 µM (inactive)

Question: And the GI50 [4]?
Answer: > 100 µM (inactive)

Question: And the GI50 [5]?
Answer: > 100 µM (inactive)

Question: What about the GI50 [6] of the same molecule?
Answer: > 100 µM (inactive)

Question: And the GI50 [7]?
Answer: > 100 µM

Question: And the GI50 [8]?
Answer: > 100 µM (inactive)

Question: And the GI50 [9]?
Answer: > 100 µM (inactive)

Question: What about the GI50 [10] of the same molecule?
Answer: > 100 µM (inactive)

Question: And the GI50 [11]?
Answer: > 100 µM (inactive)

Question: And the GI50 [12]?
Answer: > 100 µM (inactive)

Question: And the GI50 [13]?
Answer: > 100 µM (inactive)

Question: What about the GI50 [14] of the same molecule?
Answer: > 100 µM (inactive)

Question: And the GI50 [15]?
Answer: 24.7 µM (inactive)

Question: What about the GI50 [16] of the same molecule?
Answer: > 100 µM (inactive)

Question: With `COc1c(C)cc2c(c1O)C1NC(C2)[C@H](O)N2C3COC(=O)[C@@]4(CS[C@@H](c5c(OC(C)=O)c(C)c6c(c53)OCO6)C12)NCCC1=C4NC2C=CC=CC12` (some centres not stated) as the molecule, how does the GI50 [1] read?
Answer: < 0.01 µM (active)

Question: What about the GI50 [2] of the same molecule?
Answer: < 0.01 µM (active)

Question: What about the GI50 [3] of the same molecule?
Answer: < 0.01 µM (active)

Question: What about the GI50 [4] of the same molecule?
Answer: < 0.01 µM (active)

Question: And the GI50 [5]?
Answer: < 0.01 µM (active)

Question: And the GI50 [6]?
Answer: < 0.01 µM (active)

Question: What about the GI50 [7] of the same molecule?
Answer: 0.0104 µM

Question: And the GI50 [8]?
Answer: < 0.01 µM (active)

Question: And the GI50 [9]?
Answer: < 0.01 µM (active)

Question: What about the GI50 [10] of the same molecule?
Answer: < 0.01 µM (active)

Question: And the GI50 [11]?
Answer: < 0.01 µM (active)

Question: And the GI50 [12]?
Answer: < 0.01 µM (active)

Question: And the GI50 [13]?
Answer: < 0.01 µM (active)

Question: What about the GI50 [14] of the same molecule?
Answer: < 0.01 µM (active)

Question: What about the GI50 [15] of the same molecule?
Answer: < 0.01 µM (active)

Question: What about the GI50 [16] of the same molecule?
Answer: < 0.01 µM (active)

Question: With `COc1ccc(-n2nnnc2C2(Nc3ccccc3)CCN(Cc3ccccc3)CC2)cc1` as the molecule, how does the GI50 [1] read?
Answer: 18.7 µM (inactive)

Question: And the GI50 [2]?
Answer: 11.9 µM (inactive)

Question: And the GI50 [3]?
Answer: 12.2 µM (inactive)

Question: And the GI50 [17]?
Answer: 14.7 µM (inactive)

Question: What about the GI50 [18] of the same molecule?
Answer: 4.51 µM (inactive)

Question: What about the GI50 [5] of the same molecule?
Answer: 12.8 µM (inactive)

Question: What about the GI50 [19] of the same molecule?
Answer: 7.73 µM (inactive)

Question: And the GI50 [6]?
Answer: 17.5 µM (inactive)

Question: And the GI50 [7]?
Answer: 7.21 µM

Question: And the GI50 [9]?
Answer: 7.38 µM (inactive)

Question: And the GI50 [10]?
Answer: 3.93 µM (inactive)

Question: And the GI50 [11]?
Answer: 13.4 µM (inactive)

Question: And the GI50 [12]?
Answer: 7.8 µM (inactive)

Question: And the GI50 [13]?
Answer: 31.8 µM (inactive)

Question: What about the GI50 [14] of the same molecule?
Answer: 19 µM (inactive)

Question: And the GI50 [15]?
Answer: 13.6 µM (inactive)

Question: And the GI50 [16]?
Answer: 6.82 µM (inactive)

Question: For `COc1cc(/C=C/C(C)=O)ccc1OP(=O)(O)O`, which GI50 [2] is on record?
Answer: > 100 µM (inactive)

Question: And the GI50 [3]?
Answer: > 100 µM (inactive)

Question: What about the GI50 [4] of the same molecule?
Answer: > 100 µM (inactive)

Question: And the GI50 [18]?
Answer: > 100 µM (inactive)

Question: What about the GI50 [5] of the same molecule?
Answer: > 100 µM (inactive)

Question: What about the GI50 [19] of the same molecule?
Answer: > 100 µM (inactive)

Question: What about the GI50 [6] of the same molecule?
Answer: > 100 µM (inactive)

Question: And the GI50 [7]?
Answer: > 100 µM

Question: And the GI50 [8]?
Answer: > 100 µM (inactive)

Question: And the GI50 [9]?
Answer: > 100 µM (inactive)

Question: What about the GI50 [20] of the same molecule?
Answer: > 100 µM (inactive)

Question: And the GI50 [10]?
Answer: > 100 µM (inactive)

Question: And the GI50 [11]?
Answer: > 100 µM (inactive)

Question: And the GI50 [12]?
Answer: > 100 µM (inactive)

Question: And the GI50 [13]?
Answer: > 100 µM (inactive)

Question: And the GI50 [14]?
Answer: > 100 µM (inactive)

Question: What about the GI50 [15] of the same molecule?
Answer: > 100 µM (inactive)

Question: And the GI50 [16]?
Answer: > 100 µM (inactive)

Question: What does the source list for `COc1ccc(/C=C/[N+](=O)[O-])cc1`?
Answer: GI50 [2]: 3.57 µM (inactive); GI50 [3]: 14.9 µM (inactive); GI50 [4]: 3.61 µM (inactive); GI50 [18]: 3.05 µM (inactive); GI50 [5]: 5.15 µM (inactive); GI50 [19]: 2.02 µM (inactive); GI50 [7]: 3.7 µM; GI50 [8]: 20 µM (inactive); GI50 [9]: 2.83 µM (inactive); GI50 [10]: < 0.01 µM (active); GI50 [11]: 19.1 µM (inactive); GI50 [12]: 6.67 µM (inactive); GI50 [13]: 7.48 µM (inactive); GI50 [14]: 2.67 µM (inactive); GI50 [15]: 3.75 µM (inactive); GI50 [16]: 3.24 µM (inactive)

Question: Which GI50 [1] does the source give for `NC1=C(Br)C(=O)c2ncccc2C1=O` here?
Answer: 1.4 µM (inactive)

Question: What about the GI50 [2] of the same molecule?
Answer: 1.11 µM (active)

Question: And the GI50 [3]?
Answer: 0.183 µM (active)

Question: And the GI50 [4]?
Answer: 1.09 µM (active)

Question: And the GI50 [5]?
Answer: 3.72 µM (inactive)

Question: And the GI50 [6]?
Answer: 0.258 µM (active)

Question: What about the GI50 [7] of the same molecule?
Answer: 0.352 µM

Question: What about the GI50 [8] of the same molecule?
Answer: 0.346 µM (active)

Question: And the GI50 [9]?
Answer: 0.466 µM (active)

Question: And the GI50 [10]?
Answer: 1.11 µM (active)

Question: What about the GI50 [11] of the same molecule?
Answer: 0.466 µM (active)

Question: And the GI50 [12]?
Answer: 0.22 µM (active)

Question: What about the GI50 [13] of the same molecule?
Answer: 0.406 µM (active)

Question: What about the GI50 [14] of the same molecule?
Answer: 0.531 µM (active)

Question: What about the GI50 [15] of the same molecule?
Answer: 1.51 µM (inactive)

Question: What about the GI50 [16] of the same molecule?
Answer: 1.69 µM (inactive)
